Assay [1] addresses NET (norepinephrine transporter) (Homo sapiens, UniProt P23975). In words: PDSP radioligand binding, norepinephrine transporter. The note with it: 10 µM, quadruplicate; read-out: NET Primary Screen inhibition of binding. The source says: (§1) [17] and http://pdsp.med.unc.edu/UNC-CH%20Protocol%20Book.pdf.
For another assay, the target named is Sigma1 (Homo sapiens, UniProt Q99720). In words: PDSP radioligand binding, Sigma1. The note with it: for inhibition at 10 µM: quadruplicate, read-out: Sigma1 Primary Screen inhibition of binding.
Sigma1, sequence (Q99720 whole entry): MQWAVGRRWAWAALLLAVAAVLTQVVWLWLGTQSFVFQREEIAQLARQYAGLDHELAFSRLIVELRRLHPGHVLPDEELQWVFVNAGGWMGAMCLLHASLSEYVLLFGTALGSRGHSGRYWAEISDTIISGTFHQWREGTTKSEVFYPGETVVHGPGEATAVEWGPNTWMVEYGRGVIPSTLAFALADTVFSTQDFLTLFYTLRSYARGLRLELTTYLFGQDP
Excerpt: as §1

For another assay, the target named is Sigma2 (Homo sapiens, UniProt Q5BJF2). In words: PDSP radioligand binding, Sigma2. Particulars: for Ki: Table 2.
Sigma2, sequence (Q5BJF2 whole entry): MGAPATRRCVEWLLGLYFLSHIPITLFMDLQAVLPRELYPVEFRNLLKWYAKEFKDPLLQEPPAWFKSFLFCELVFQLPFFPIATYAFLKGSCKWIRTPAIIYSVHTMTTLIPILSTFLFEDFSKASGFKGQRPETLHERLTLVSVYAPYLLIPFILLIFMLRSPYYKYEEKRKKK
Excerpt: as §1

Assay [2] deals with NMDA Receptor (MK-801 binding site). In words: PDSP radioligand binding, NMDA receptor. The note with it: Table 2; for Ki: read-out: NMDA (Ki) (converted).
Excerpt: as §1

Assay [3] has as its system dopamine transporter (DAT). Particulars: cited from earlier work.
Assay [4] has as its target SERT (serotonin transporter) (Homo sapiens, UniProt P31645). In words: biochemical. Format: binding.
Excerpt: as §1

Each structure is given as a SMILES string.

In general, inhibition refers to the share of the control response that was lost under treatment. What is called Ki is the equilibrium dissociation constant of an inhibitor or competing ligand from its target.

NET (norepinephrine transporter), sequence (P23975 whole entry, species assumed): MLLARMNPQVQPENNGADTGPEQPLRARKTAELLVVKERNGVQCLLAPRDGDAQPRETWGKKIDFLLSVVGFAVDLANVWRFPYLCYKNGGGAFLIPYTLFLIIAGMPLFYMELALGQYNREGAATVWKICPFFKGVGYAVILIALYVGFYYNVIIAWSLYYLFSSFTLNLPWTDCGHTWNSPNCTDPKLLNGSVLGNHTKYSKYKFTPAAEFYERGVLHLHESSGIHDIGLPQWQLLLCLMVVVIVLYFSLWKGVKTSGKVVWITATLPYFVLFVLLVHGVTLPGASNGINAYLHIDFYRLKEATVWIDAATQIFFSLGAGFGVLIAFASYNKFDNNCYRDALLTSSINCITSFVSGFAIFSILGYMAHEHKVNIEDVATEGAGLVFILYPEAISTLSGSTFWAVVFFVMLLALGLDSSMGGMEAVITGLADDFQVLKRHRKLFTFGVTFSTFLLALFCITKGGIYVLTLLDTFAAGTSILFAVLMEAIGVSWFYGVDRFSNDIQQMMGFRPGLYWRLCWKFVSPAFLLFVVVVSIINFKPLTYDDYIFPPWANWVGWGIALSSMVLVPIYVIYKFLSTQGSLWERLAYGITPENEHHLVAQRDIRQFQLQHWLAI
SERT (serotonin transporter), sequence (P31645 whole entry, species assumed): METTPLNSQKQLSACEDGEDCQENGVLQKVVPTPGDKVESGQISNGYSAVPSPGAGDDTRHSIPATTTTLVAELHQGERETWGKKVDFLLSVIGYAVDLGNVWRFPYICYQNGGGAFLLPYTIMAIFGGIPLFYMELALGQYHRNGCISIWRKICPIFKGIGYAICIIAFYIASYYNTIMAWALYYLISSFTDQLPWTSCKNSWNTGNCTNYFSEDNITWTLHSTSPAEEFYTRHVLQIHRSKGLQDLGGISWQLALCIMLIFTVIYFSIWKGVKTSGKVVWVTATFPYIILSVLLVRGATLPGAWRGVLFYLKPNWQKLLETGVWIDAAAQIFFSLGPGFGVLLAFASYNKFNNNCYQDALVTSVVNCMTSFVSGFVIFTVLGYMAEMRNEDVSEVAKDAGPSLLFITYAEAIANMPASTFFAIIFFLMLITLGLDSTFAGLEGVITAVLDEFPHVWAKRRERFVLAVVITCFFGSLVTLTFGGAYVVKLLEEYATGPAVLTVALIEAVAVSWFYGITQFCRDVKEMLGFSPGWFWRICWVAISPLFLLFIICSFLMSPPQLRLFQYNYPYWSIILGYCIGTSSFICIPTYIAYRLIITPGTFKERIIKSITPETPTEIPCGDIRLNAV

For the compound `CNC1(c2ccccc2Cl)CCCCC1=O` (racemic) [Ketamine, (RS)-2-(2-chlorophenyl)-2-(methylamino)cyclohexanone, reference compound], the inhibition at 10 µM in assay [1] was under 50%; at Sigma1, under 50%; at Sigma2 (10 µM, quadruplicate, read-out: Sigma2 Primary Screen inhibition of binding), under 50%. Besides, the “effect on sigma1 receptors” value at Sigma1 (tested at 10 µM) is given as “no significant effect”. Besides, at Sigma2 (tested at 10 µM), the “effect on sigma2 receptors” value is reported as “no significant effect”.
As for `c1ccc(C2(N3CCCCC3)CCCCC2)cc1` [Phencyclidine, reference compound], the inhibition at 10 µM (in assay [1]; at Sigma1) was under 50% throughout. Also, the inhibition constant (Ki) is 59 nM in assay [2]; 136 nM on Sigma2 (Sigma2 (Ki, nM)); 151 nM at Sigma2 (Sigma2 pKi +/− SD). The “potency at DAT, in words” value in assay [3] is reported as “submicromolar potency”.
For `CCNC1(c2cccc(OC)c2)CCCCC1` [3-MeO-PCE, N-ethyl-1-(3-methoxyphenyl)cyclohexanamine], the inhibition at 10 µM in assay [1] was under 50%. Moreover, in assay [2], the “NMDA pKi +/− SD” value was determined as 7.22±0.08. Moreover, the Ki in assay [2] was 61 nM; in assay [4] (Table 2) it was 115 nM; on Sigma1 it was 4520 nM; on Sigma2 (Sigma2 (Ki, nM)) it was 525 nM; at Sigma2 (Sigma2 pKi +/− SD), 490 nM. Also, the “affinity for the serotonin transporter (SERT), in words” value in assay [4] is recorded as “submicromolar affinities”.

The record behind these values is publication PMC3602154 (PLoS ONE, 2013).
